In patent publication US20250262167A1, “COMPOUNDS, TARGETS AND PATHWAYS FOR MACROPHAGE MODULATION” (Massachusetts Institute of Technology, priority 2020, published 2025):

Experiments:
hMDMs = experiment: RNA-seq transcriptional response of hMDMs (GSEA, GO enrichment); format: cell-based, human; settings: hMDMs, 2.5 μM, 24 hours
[1] = tested on: hMDM with anti-CD20 labelled human B lymphoma cells (GMB); experiment: ADCP of human macrophages; format: cell-based; set-up: dose or concentration left out as unconfirmed; settings: co-culture 2 hrs
Procedure: Conditioned medium (CM) was collected and filtered. B16F10 melanoma cells were cultured for 12 hrs with CM or CM heat-inactivated at 95° C. for 5 min. The number of tumor cells were quantified by flow cytometry. Data were summarized from two independent experiments. * P<0.05 by T-test. P values are shown based on t-test. […] Mouse BMMs (FIG. 14B) or hMDM (FIG. 14C) were treated with […] thiostrepton for 24 hrs, then co-cultured with equal number of eFluro670 and anti-CD20 labelled human B-cell lymphoma cells for 2 hrs, and analyzed by flow cytometry. Macrophages that have phagocytosed tumor cells are identified as efluro670+ and CD14+. Shown are representative eFluro670 histograms gating on CD14+ macrophages from three different experiments.
To examine whether thiostrepton-activating macrophages or conditioned medium have effects on tumor cell growth, BMMs were treated with thiostrepton for 24 hrs. Equal numbers of primed BMMs and melanoma cells (B16F10) were co-cultured for 12 hrs. […] Thiostrepton elevated ADCP of both human and mouse macrophages (FIGS. 14B-14C).

B16F10 melanoma cells = experiment: Tumor growth inhibition by treated macrophages or their conditioned medium; format: cell-based, mouse
Procedure: DEGs were identified by edgeR at P<0.05 with at least 2 fold-change. Data for genes that were not classified as differentially expressed are plotted in black. […] Mouse BMMs were cultured in normal medium with or without 2.5 μM thiostrepton for 24 hrs (group 1), or cultured in B16F10 tumor cell conditioned medium (CM) with or without 2.5 μM thiostrepton for 24 hrs (group 2), or cultured with B16F10 tumor cell CM for 24 hrs first and then treated with 2.5 μM thiostrepton for another 24 hrs (group 3). The transcript levels of the indicated genes were quantified by qPCR. Data were summarized from two independent experiments. […] Mouse BMMs were treated with thiostrepton for 24 hrs. […] The number of tumor cells were quantified by flow cytometry after subtracting macrophages from total number of cells. […]
Conditioned medium (CM) was collected and filtered. […] The number of tumor cells were quantified by flow cytometry. […] Mouse BMMs (FIG. 14B) or hMDM (FIG. 14C) were treated with […] thiostrepton for 24 hrs, then co-cultured with equal number of eFluro670 and anti-CD20 labelled human B-cell lymphoma cells for 2 hrs, and analyzed by flow cytometry. […]
Mouse bone marrow-derived macrophages (mBMM) were prepared as described previously^54. […] Expression of Arg, Fizz1 and Vegfa were quantified by qPCR to assess the development of TAMs. […]

[2] = tested on: subcutaneous B16F10 tumors; experiment: B16F10 melanoma model in B6 mice; format: in vivo, mouse; settings: for tumor growth: alone; for tumor growth, with TA99: combination with TA99
[3] = flow cytometry, vs vehicle or TA99

Structure (SMILES) | expression of M2 chemokine CCL24 (hMDMs) | expression of proinflammatory cytokines TNFα and IL-1β (hMDMs) | ADCP [1] | melanoma cells in conditioned medium from treated macrophages (B16F10 melanoma cells; 12 hrs, vs untreated or heat-inactivated conditioned medium) | melanoma cells after co-culture with treated macrophages (B16F10 melanoma cells; BMMs treated 24 hrs, co-culture 12 hrs, vs untreated macrophages, dose-dependent) | tumor growth ([2]; I.P., 150 or 300 mg/kg, dosage-dependent) | tumor growth, with TA99 ([2]; I.P., 150 or 300 mg/kg) | expression of Tnf, Il1b, Cxcl1 and Cxcl2 in TAMs ([2]; RNA-seq, day 18, I.P. or S.C.) | macrophages and monocytes in tumors ([2]; day 18, flow cytometry, vs vehicle or TA99) | Arg1 in TAM [2, 3] | iNOS and CD86 in TAM [2, 3] | tumor growth ([2]; para-tumor S.C., 20 mg/kg) | tumor growth, with TA99 ([2]; para-tumor S.C., 20 mg/kg) | TNFα+ IFNγ+ NK cells in tumors ([2]; vs vehicle or TA99) | HFD-induced elevation of serum AST and ALT (HFD 8 weeks) | weight gain (HFD 8 weeks, 2 mg/kg i.p. every five days, vs vehicle) | glucose tolerance (HFD 8 weeks, vs vehicle) | lipid deposition in the liver (HFD 8 weeks, vs vehicle) | iWAT (after 8 weeks on HFD)
C=C(NC(=O)C(=C)NC(=O)c1csc(C2=N[C@@H]3c4csc(n4)[C@H]4NC(=O)c5csc(n5)[C@H]([C@](C)(O)[C@@H](C)O)NC(=O)[C@H]5CSC(=N5)/C(=C/C)NC(=O)[C@H]([C@@H](C)O)NC(=O)c5csc(n5)[C@]3(CC2)NC(=O)[C@H](C)NC(=O)C(=C)NC(=O)[C@H](C)NC(=O)[C@H]([C@@H](C)CC)N[C@@H]2C=Cc3c([C@H](C)O)cc(nc3[C@H]2O)C(=O)O[C@@H]4C)n1)C(N)=O [Thiostrepton] | down-regulate | polarized to express | elevated | more melanoma cells were lost | Significantly more melanoma cells were lost | strongly suppressed | additively | significantly upregulated | elevated levels | decreased levels | elevated levels | suppressed the tumor growth | additive effects | increased number | – | – | – | – | –
c1ccc2c(c1)[I+]c1ccccc1-2 [Diphenyleneiodonium chloride] | – | – | – | – | – | – | – | – | – | – | – | – | – | – | significantly reduced | significantly reduced | significant increase | significantly reduced | significantly lower levels
